Laboratory results: the NIST ThermoML archive (doi:10.1021/je700261b)
± gives the expanded uncertainty stated by the source.

Conditions: Liquid

CCCCO [butan-1-ol]
Conditions	mass density [kg/m3]
313.08 K, 1006 kPa	795.22 ± 0.46
313.08 K, 2017 kPa	796.08 ± 0.47
313.08 K, 3007 kPa	796.85 ± 0.47
313.08 K, 4010 kPa	797.64 ± 0.48
313.08 K, 5016 kPa	798.44 ± 0.49
313.08 K, 6017 kPa	799.22 ± 0.5
313.08 K, 7011 kPa	800 ± 0.5
313.08 K, 8006 kPa	800.77 ± 0.51
313.08 K, 9019 kPa	801.53 ± 0.52
313.08 K, 10008 kPa	802.27 ± 0.53
313.08 K, 11014 kPa	803.01 ± 0.54
313.08 K, 12016 kPa	803.73 ± 0.54
313.08 K, 13016 kPa	804.46 ± 0.55
313.08 K, 14013 kPa	805.18 ± 0.56
313.08 K, 15010 kPa	805.91 ± 0.57
313.08 K, 16003 kPa	806.58 ± 0.58
313.08 K, 16999 kPa	807.29 ± 0.59
313.08 K, 17999 kPa	807.98 ± 0.6
313.08 K, 19024 kPa	808.67 ± 0.61
313.08 K, 20005 kPa	809.33 ± 0.62
313.08 K, 21013 kPa	810.09 ± 0.62
313.08 K, 22003 kPa	810.75 ± 0.63
313.08 K, 23024 kPa	811.41 ± 0.64
313.08 K, 24027 kPa	812.09 ± 0.65
313.08 K, 24234 kPa	812.21 ± 0.65
323.05 K, 999 kPa	787.38 ± 0.46
323.05 K, 2026 kPa	788.22 ± 0.47
323.05 K, 3007 kPa	789.03 ± 0.48
323.05 K, 4024 kPa	789.91 ± 0.48
323.05 K, 5012 kPa	790.75 ± 0.49
323.05 K, 6016 kPa	791.57 ± 0.5
323.05 K, 7023 kPa	792.4 ± 0.51
323.05 K, 8004 kPa	793.16 ± 0.52
323.05 K, 9009 kPa	793.98 ± 0.53
323.05 K, 10007 kPa	794.78 ± 0.53
323.05 K, 11004 kPa	795.57 ± 0.54
323.05 K, 11995 kPa	796.32 ± 0.55
323.05 K, 13007 kPa	797.09 ± 0.56
323.05 K, 14022 kPa	797.85 ± 0.57
323.05 K, 14989 kPa	798.63 ± 0.58
323.05 K, 16006 kPa	799.33 ± 0.59
323.05 K, 16998 kPa	800.1 ± 0.6
323.05 K, 18001 kPa	800.84 ± 0.61
323.05 K, 19025 kPa	801.56 ± 0.62
323.05 K, 19993 kPa	802.28 ± 0.63
323.05 K, 21032 kPa	803.06 ± 0.64
323.05 K, 22006 kPa	803.74 ± 0.65
323.05 K, 22993 kPa	804.41 ± 0.66
323.05 K, 24012 kPa	805.16 ± 0.67
323.05 K, 24418 kPa	805.43 ± 0.67
332.93 K, 1013 kPa	779.33 ± 0.47
332.93 K, 2026 kPa	780.27 ± 0.47
332.93 K, 3014 kPa	781.21 ± 0.48
332.93 K, 4006 kPa	782.04 ± 0.49
332.93 K, 5000 kPa	782.91 ± 0.5
332.93 K, 6013 kPa	783.78 ± 0.51
332.93 K, 6997 kPa	784.6 ± 0.51
332.93 K, 8003 kPa	785.5 ± 0.52
332.93 K, 9005 kPa	786.32 ± 0.53
332.93 K, 10001 kPa	787.17 ± 0.54
332.93 K, 10996 kPa	787.97 ± 0.55
332.93 K, 12003 kPa	788.8 ± 0.56
332.93 K, 12993 kPa	789.62 ± 0.57
332.93 K, 14001 kPa	790.38 ± 0.58
332.93 K, 15016 kPa	791.22 ± 0.59
332.93 K, 15998 kPa	791.96 ± 0.6
332.93 K, 16999 kPa	792.72 ± 0.61
332.93 K, 18009 kPa	793.53 ± 0.62
332.93 K, 18986 kPa	794.29 ± 0.63
332.93 K, 20043 kPa	795.08 ± 0.64
332.93 K, 21056 kPa	795.87 ± 0.65
332.93 K, 22040 kPa	796.59 ± 0.66
332.93 K, 23009 kPa	797.3 ± 0.67
332.93 K, 24001 kPa	798.04 ± 0.68
332.93 K, 24515 kPa	798.46 ± 0.68
342.86 K, 1026 kPa	770.92 ± 0.47
342.86 K, 2007 kPa	771.87 ± 0.48
342.86 K, 3003 kPa	772.85 ± 0.49
342.86 K, 4051 kPa	773.84 ± 0.49
342.86 K, 5008 kPa	774.72 ± 0.5
342.86 K, 6023 kPa	775.59 ± 0.51
342.86 K, 7010 kPa	776.55 ± 0.52
342.86 K, 8000 kPa	777.42 ± 0.53
342.86 K, 9001 kPa	778.28 ± 0.54
342.86 K, 10005 kPa	779.2 ± 0.55
342.86 K, 11006 kPa	780.06 ± 0.56
342.86 K, 12010 kPa	780.9 ± 0.57
342.86 K, 13033 kPa	781.77 ± 0.58
342.86 K, 14017 kPa	782.62 ± 0.59
342.86 K, 15001 kPa	783.45 ± 0.6
342.86 K, 16009 kPa	784.29 ± 0.61
342.86 K, 17016 kPa	785.14 ± 0.62
342.86 K, 17991 kPa	785.93 ± 0.63
342.86 K, 19023 kPa	786.79 ± 0.64
342.86 K, 19999 kPa	787.57 ± 0.65
342.86 K, 21000 kPa	788.37 ± 0.66
342.86 K, 22003 kPa	789.15 ± 0.67
342.86 K, 22989 kPa	789.91 ± 0.68
342.86 K, 24004 kPa	790.69 ± 0.69
342.86 K, 24621 kPa	791.2 ± 0.7
352.79 K, 1020 kPa	762.66 ± 0.47
352.79 K, 2014 kPa	763.68 ± 0.48
352.79 K, 3007 kPa	764.68 ± 0.49
352.79 K, 3998 kPa	765.67 ± 0.5
352.79 K, 4998 kPa	766.69 ± 0.51
352.79 K, 5997 kPa	767.68 ± 0.52
352.79 K, 7006 kPa	768.64 ± 0.53
352.79 K, 8005 kPa	769.61 ± 0.54
352.79 K, 9007 kPa	770.53 ± 0.55
352.79 K, 9997 kPa	771.44 ± 0.56
352.79 K, 11008 kPa	772.38 ± 0.57
352.79 K, 12000 kPa	773.26 ± 0.58
352.79 K, 13043 kPa	774.22 ± 0.59
352.79 K, 14002 kPa	775.11 ± 0.6
352.79 K, 15000 kPa	775.98 ± 0.61
352.79 K, 16000 kPa	776.85 ± 0.62
352.79 K, 16992 kPa	777.72 ± 0.63
352.79 K, 17988 kPa	778.56 ± 0.64
352.79 K, 18994 kPa	779.41 ± 0.65
352.79 K, 20012 kPa	780.22 ± 0.66
352.79 K, 21003 kPa	781.04 ± 0.67
352.79 K, 22010 kPa	781.87 ± 0.69
352.79 K, 22971 kPa	782.68 ± 0.7
352.79 K, 24021 kPa	783.49 ± 0.71
352.79 K, 24573 kPa	783.95 ± 0.71
362.67 K, 1043 kPa	753.5 ± 0.48
362.67 K, 2116 kPa	754.77 ± 0.49
362.67 K, 3026 kPa	755.74 ± 0.5
362.67 K, 4013 kPa	756.82 ± 0.5
362.67 K, 5024 kPa	757.87 ± 0.51
362.67 K, 6047 kPa	758.93 ± 0.52
362.67 K, 7014 kPa	759.93 ± 0.53
362.67 K, 8012 kPa	760.98 ± 0.54
362.67 K, 9025 kPa	762.03 ± 0.56
362.67 K, 10015 kPa	762.94 ± 0.57
362.67 K, 11002 kPa	763.92 ± 0.58
362.67 K, 12002 kPa	764.89 ± 0.59
362.67 K, 13011 kPa	765.86 ± 0.6
362.67 K, 14011 kPa	766.84 ± 0.61
362.67 K, 15014 kPa	767.7 ± 0.62
362.67 K, 16006 kPa	768.67 ± 0.63
362.67 K, 17009 kPa	769.58 ± 0.64
362.67 K, 18008 kPa	770.48 ± 0.65
362.67 K, 18993 kPa	771.37 ± 0.67
362.67 K, 19990 kPa	772.21 ± 0.68
362.67 K, 21007 kPa	773.1 ± 0.69
362.67 K, 21997 kPa	773.96 ± 0.7
362.67 K, 23014 kPa	774.89 ± 0.71
362.67 K, 24000 kPa	775.58 ± 0.72
362.67 K, 24563 kPa	776.12 ± 0.73
